Experimental findings from a melting point compilation (Tetko et al.; mined from patent text by program, amines drawn as free bases though some values may be those of a salt) are described below.

The structures appear in SMILES notation.

With `COC(=O)c1cc(-c2ccc(OC)c(F)c2)nn(CC2CCCC2)c1=O`, the melting point – broadly, the temperature, or range, at which the solid turns liquid – lay within 56 to 66 °C.
`Oc1cccc2c(Cl)ccnc12` had a melting point of 143 to 145 °C.
For `Cc1cc(Cn2c(=S)sc3ccccc32)cc(C)c1O`, the melting point lay in the range of 164 to 165 °C.
In turn, `O=C1c2cc(Cl)ccc2-n2cnc(-c3noc(CCl)n3)c2[C@@H]2CCN12` had a melting point of 238 to 241 °C.
The result for `Oc1ccc(-c2ncc3ncc(-c4ccc(S)cc4)cc3n2)cc1` reads 222 to 223 °C; that for `OC1C2=C(CCN1CCCCc1c[nH]c3ccccc13)c1ccccc1C2` (stereo unspecified), 205 to 208 °C.
As for `N#Cc1ccc(Cl)c(N=Cc2ccccc2O)c1`, the figure is 147 to 148 °C.
The result for `CCC(=O)N1CCC(NC(=O)Nc2ccc(C(=O)O)cc2)CC1` reads 201 to 204 °C; that for `CCCCCCCCCCCCN=C1SC(=CC(=O)O)C(=O)N1CCCCCCCCCCCC`, 71 to 72 °C; that for `CN(C)Cc1ccc(CSCCNC(=O)NCCN(C)CCN(Cc2ccc(F)cc2)c2ccccn2)o1`, 90 °C.
For `COc1ccc2cncc(CCl)c2c1`, the melting point lay in the range of 256 to 257 °C.
As to `CCc1cccc(C)c1CNc1nc(C(=O)O)cn2c(C)c(C)nc12`, the melting point was 230 °C.
As for `Cn1ncnc1COc1nn2c(-c3ccccc3F)nnc2cc1C1(C)CCOCC1`, the figure is 191 °C; as for `O=C(NCCCCCCNC(=O)c1ccc(O)cc1)c1ccc(O)cc1`, 220 to 222 °C.
As for `CN1c2ccccc2C(C)(C)C12CNc1c(cc(N3CCCCC3)c3oc4ccccc4c13)O2` (stereo unspecified), the figure is 214 to 216 °C; as for `COC(=O)CCCC#Cc1cc(C)c2oc(=O)n(C)c2c1`, 97 to 98 °C.
As for `N#CCC(C#N)=CNc1c(Cl)cc(C(F)(F)F)cc1Cl`, the figure is 122 °C.
The compound `COc1ccc2c(c1)N(C)C(=O)N(c1ccc(Cl)cc1)S2(=O)=O` showed a melting point of 167 to 168 °C.
As to `COc1cc(-c2nc(-c3ccc(N(C)C)cc3)c(C)[nH]2)cc(OC)c1OP(=O)(O)O`, the melting point was in the range of 196 to 198 °C.
On to `CO/N=C/c1ccc2c(c1Cn1ccnc1)OCO2`, for which the melting point worked out at 102 °C.
Turning to `CCOC(=O)N1CCOC(CC23CC(c4ccccc42)c2ccccc23)C1` (stereo unspecified), the melting point was 143 to 144 °C.
As for `COc1cc(C=Cc2nc3c(c(=O)n(C)c(=O)n3C)n2C)cc(OC)c1`, the figure is 228 to 230 °C; as for `COc1cccc(C#Cc2ccncc2)c1`, 33 to 35 °C; as for `CC(=O)Nc1c(-c2cc(Cl)ccc2O)c2cc(C(F)(F)F)ccc2[nH]c1=O`, 222 to 224 °C.
As for `O=C1NCCCc2cc(CCCl)sc21`, the figure is 156 to 158 °C; as for `CS(=O)(=O)N(Cc1cccnc1)c1ccc(O)cc1`, 208 to 210 °C.
The result for `N#Cc1nc(N2CCNCC2)nc(N2CCS(=O)CC2)c1Cl` reads 206 to 208 °C; that for `N#Cc1ccc(Oc2ccc(C3CCCN4CCS(=O)(=O)N=C34)cc2)cc1Cl` (stereo unspecified), 219 to 220 °C.
In the case of `O=C(Cl)CCCCCCCBr`, the melting point fell in the range of 110 to 112 °C.
The result for `CON(C)C(=O)[C@@H](CO)NC(=O)OC(C)(C)C` reads 115 to 116 °C; that for `COC(=O)C1=C(C)NC(C)=C(C(=O)OC)C1c1ccccc1CC(OC)OC`, 113 to 114 °C; that for `Cc1cccc(NC(=O)c2cc(=O)[nH]c3ccc(C(=O)c4ccc(Cl)cc4)cc23)c1`, 230 °C.
The result for `CCc1nc2c(cnn2CC)c(NC2CCOCC2)c1CNC(=O)c1cccc(C(=O)NCc2ccc(Cl)c(-c3cccc(CN4CCCNCC4)c3)c2)c1` reads 116 to 119 °C.
As for `OC(c1ccc(OC(F)(F)F)cc1)(c1ccc(OC(F)(F)F)cc1)C1CCN(Cc2c[nH]c3cccc(F)c23)CC1`, the figure is 76 to 88 °C.
`CC(C)(C)C(=O)OCN1C(=O)NC2(C1=O)C(=O)N(Cc1ccc(Br)cc1F)c1ccccc12` (stereo unspecified) had a melting point of 220 to 222 °C.
`CCCn1nc(-c2cnc(N)nc2-c2ccccc2)ccc1=O` gave a melting point of 188 to 189 °C.
Take `O=C(NC1CCc2cc3c(cc2C1)OCC3)C(F)(F)F` (stereo unspecified): the melting point amounted to 131 °C.
Consider `Cc1cc(-c2cc(COS(C)(=O)=O)c(=O)n(Cc3ccc(Cl)cc3)n2)ccc1F`, for which the melting point is 132 to 133 °C.
As for `CC(C)(C)c1cc(O)c(N)c([N+](=O)[O-])c1`, the figure is 180 to 181 °C; as for `O=C(Nc1ccc(Sc2c(O)c3c(Cl)cc(Cl)cc3[nH]c2=O)cc1)c1ccco1`, 296 to 300 °C.
The result for `N#CC(c1ccccc1)c1nc(-c2ccncc2)cs1` (stereo unspecified) reads 110 to 111 °C.
As for `CC1(c2cc(N3C(=O)C4=C(CCCC4)C3=O)c(F)cc2Cl)OCCO1`, the melting point was found to be 147 °C.
As for `O=CN1CCN(c2ccnc(Oc3ccccc3)n2)CC1`, the figure is 149 to 151 °C; as for `O=C(Nc1ccc(-n2nc(C(F)(F)F)cc2C(F)(F)F)cc1)C1CCCCC1`, 178 to 180 °C; as for `COC(=O)CNc1cccc(C)c1`, 40 °C.
The result for `CCOC(=O)c1cnn(-c2ccccn2)c1Cl` reads 50 to 51 °C; that for `Oc1cccc(-c2noc3cc(F)ccc23)c1`, 144 to 145 °C; that for `CC(Oc1ccc(OC(C)C(=O)O)cc1)C(=O)O` (stereo unspecified), 235 to 240 °C.
The result for `COC(=O)c1ccc2oc(CCC=O)cc2c1` reads 48 to 49 °C; that for `O=C(O)Cc1cc(Cc2cccc(Oc3ccccc3)c2)ccc1Nc1c(Cl)cccc1Cl`, 116 to 117 °C; that for `CCOC(=O)CO/N=C(\C(=O)Sc1nc2ccccc2s1)c1cc[nH]n1`, 112 to 114 °C.
On to `COc1cc(C(=O)NS(=O)(=O)c2ccccc2Cl)ccc1Cc1c(Cl)n(C)c2ccc(CC(C)NC(=O)N(C)C)cc12` (stereo unspecified), for which the melting point is 126 to 136 °C.
Compound `Nc1ncc(CN2CCN(c3ccc(Cl)cc3)CC2)c(N)n1` yielded a melting point of 296 to 298 °C.
For the compound `CC(=O)Nc1ncc(Sc2nnc(C)s2)s1`, the melting point lay in the range of 242 to 244 °C.
As for `O=C(O)c1cc(Cl)cc2c1O[C@@H]1C=CCC[C@H]21` (relative stereo), the figure is 147 to 150 °C; as for `CC(C)(C)OC(=O)N1CCN(c2cccc3cc[nH]c23)CC1`, 150 to 151 °C; as for `CCCCCCC(O)CNCC(O)CO` (stereo unspecified), 85 to 90 °C.
As for `COC(=O)CC(=O)c1cnccn1`, the figure is 109 to 110 °C; as for `CN1C(=O)C(Br)=C(c2cn(C)c3ccccc23)C1=O`, 155 to 158 °C; as for `Cc1nc(N2CCc3ccccc3CC2)c(C#N)c(=O)n1C1CC1`, 177 to 179 °C.
In turn, `CC(=O)N1c2ccccc2Sc2ccccc21` gave a melting point of 210 to 211 °C.
As for `CCOC(=O)CNC(=O)CCN(C(=O)c1ccc(Cl)cc1)c1ccc(OC)cc1`, the figure is 87 to 89 °C.
As for `N=C(Nc1cc(Cl)cc(NC(=O)/C=C/c2ccccc2C(F)(F)F)c1)c1ccsc1`, the figure is 121 to 123 °C.
Consider `CCOCc1cc2cc(Br)ccc2oc1=O`, for which the melting point lay in the range of 118 to 119 °C.
Turning to `CCc1cc(OC)c(O)c([N+](=O)[O-])c1`, the melting point lay within 59 to 61 °C.
As for `CCn1cc(C(=O)O)c(=O)c2cc(F)c(N3CCC(CNC)C3)nc21` (stereo unspecified), the melting point was 251 to 253 °C.
With `CC(C)(C)OC(=O)N[C@@H](Cc1ccc(Cc2ccccc2)cc1)C(=O)O`, the melting point was in the range of 103 to 107 °C.
In the case of `Cc1ccc(S(=O)(=O)NC[C@H]2CN3C(=O)C[C@H]3O2)cc1` (racemic), the melting point lay in the range of 123 to 125 °C.
The result for `CCNC1CC=C(c2c[nH]c3cc(NC(=N)c4cccs4)ccc23)CC1` (stereo unspecified) reads 95 to 97 °C.
`CCNc1cccc2c(S(=O)(=O)Nc3ccc(Cl)nn3)cccc12` came in with a melting point of 166 to 168 °C.
As for `CCCCc1oc2ccc(CO)cc2c1C1(c2ccc(O)cc2)OCCO1`, the figure is 100 to 101 °C; as for `CC#CC(C)(C)NC(=O)C(CC)Oc1cncc(Br)c1` (single isomer, unassigned; (-)), 95 to 97 °C.
As for `CC1Sc2c(C(=O)O)c(=O)c3cc(F)c(N4CCC(N)C4)c(Cl)c3n21` (stereo unspecified), the figure is more than 300 °C; as for `CC(C)(C)c1noc(-c2cccc(S(C)(=O)=O)n2)n1`, 165 to 167 °C; as for `O=CN1CCN(c2nc(N3CCSCC3)c3ncnc(NCc4ccccc4)c3n2)CC1`, 94 to 96 °C.
As for `CC(C)(C)c1ccc2sc3cc(-c4nnn[nH]4)ccc3c(=O)c2c1`, the figure is 277 °C; as for `CCCC[C@H](NC(=O)[C@H](CC(C)C)NC(=O)c1ccc(OC)cc1)C(=O)CSCc1ccco1`, 124 °C.
With `Cc1ccc(-c2nc(C)cc(O)n2)cc1`, the melting point was 206 to 207 °C.
On to `COc1ccc2cc([C@H](C)C(=O)OC/C=C\CO)ccc2c1`, for which the melting point was in the range of 69 to 71 °C.
Consider `COc1ccccc1C1=Nc2ccc(N3CCOCC3)cc2C(=O)C1`, for which the melting point was in the range of 262 to 264 °C.
The compound `CCC(O)CN1CCC2(CC1)CSC1=C(O2)c2ccccc2C(=O)C1=O` (stereo unspecified) showed a melting point of 180 to 182 °C.
For the compound `CC(C)C1Sc2c(Cl)cccc2NC1=O` (stereo unspecified), the melting point is 158 to 159 °C.
`Sc1nc2ccccc2n1Cc1c(Cl)cccc1Cl` had a melting point of 234 to 235 °C.
In turn, `CCC(O)CCCOc1ccccc1Oc1ccccc1OCCCC(O)CC` (stereo unspecified) showed a melting point of 119 °C.
Consider `O=C(CN1CCNC1=O)N1CCC(C2c3ncc(Br)cc3CCc3cc(Cl)cc(Br)c32)CC1` (single isomer, unassigned; (+)), for which the melting point lay in the range of 167 to 168 °C.
Compound `O=C(O)C=CC(=O)c1cccs1` yielded a melting point of 139 to 142 °C.
Consider `COC(=O)[C@@H]1[C@@H](Cc2ccccc2)C[C@@H]2CC[C@H]1N2C`, for which the melting point fell in the range of 79 to 80 °C.
In the case of `CCOC(=O)Cc1nc(-c2ccc(Cl)cc2)oc1OCC`, the melting point lay within 144 to 146 °C.
The result for `O=C(O)c1ccc(COCc2csc3nc(C(=O)NCc4cccc(Br)c4)[nH]c(=O)c23)cc1` reads 231 to 233 °C.
In turn, `CC(C)n1nc(-c2sc(NC(=O)CN(C)CCN(C)C)nc2-c2ccccc2)ccc1=O` had a melting point of 155 to 157 °C.
Take `CCOC(=O)c1cc2c(cn1)[nH]c1cccc(C=Nc3ccccc3)c12`: the melting point is 298 to 302 °C.
